Results taken from ChEMBL document CHEMBL6096711, “Discovery of Novel Pyrimidine Derivatives as Human Pin1 Covalent Inhibitors” (ACS Med Chem Lett, 2025).
Where a SMILES comes first, the peptide text is derived from it. [ ]: non-standard residue; d: D form. The star is where a group is joined. NMeF = CN[C@@H](Cc1ccccc1)C(=O)O; Pip = O=C(O)[C@@H]1CCCCN1; ClAc = O=C(CCl)*

Tests used:
[1] = target: T1, Peptidyl-prolyl cis-trans isomerase NIMA-interacting 1 (Homo sapiens, UniProt Q13526); test: Inhibition of human Pin1 extracted from Escherichia coli BL21 (DE3) cells using TAMRA labelled Bth-(D-Thr(PO3H2))-Pip-Nal-NH2 peptide probe as substrate by fluorescence polarization assay
T1 sequence (Q13526 whole entry): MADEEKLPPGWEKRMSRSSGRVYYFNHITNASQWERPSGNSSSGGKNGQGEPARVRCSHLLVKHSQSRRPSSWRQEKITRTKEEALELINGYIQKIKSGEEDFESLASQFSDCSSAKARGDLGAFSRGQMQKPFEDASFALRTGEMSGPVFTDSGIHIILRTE

[2] = tested on: HCT-116; test: cells; conditions: Homo sapiens, HCT-116, 96 h
Description: Antitumor activity against human HCT-116 cells assessed as inhibition of cell growth measured after 96 hrs by MTT assay

[3] = target: T1, Peptidyl-prolyl cis-trans isomerase NIMA-interacting 1; test: Inhibition of human Pin1 using Suc-Ala-Glu-Pro-Phe04-nitroanilide as peptide substrate preincubated for 14 hrs followed by substrate addition and measured immediately by chymotrypsin-coupled PPIase assay
[4] = tested on: MCF7; test: cells; conditions: Homo sapiens, MCF7, 96 h
Description: Antitumor activity against human MCF7 cells assessed as inhibition of cell growth measured after 96 hrs by MTT assay

[5] = Stability in mouse liver microsomes assessed as half life; assay type: ADME, Microsome

Row | Structure (SMILES) | IC50 [1] [µM] | IC50 [2] [µM] | IC50 [3] [µM] | IC50 [4] [µM] | half-life [5] [min]
1 | CC(C)(C)CN(C(=O)CCl)C1CCS(=O)(=O)C1 (configuration not stated) | 0.12 | 7.54 | 0.12 | > 100 | 
2 | O=[N+]([O-])c1cnc(Cl)nc1N(Cc1ccc(-c2ccc3ccccc3c2)s1)C1CCS(=O)(=O)C1 (configuration not stated) |  | 3.35 |  | 4.95 | 
3 | O=[N+]([O-])c1cnc(Cl)nc1N(Cc1cccc2ccccc12)C1CCS(=O)(=O)C1 (configuration not stated) |  | 5.04 |  | > 100 | 
4 | O=[N+]([O-])c1cnc(N(Cc2coc3ccccc23)C2CCS(=O)(=O)C2)nc1Cl (configuration not stated) |  | > 100 |  | 5.26 | 
5 | O=S1(=O)CCC(Nc2nc(Cl)nc(Cl)n2)C1 (configuration not stated) | 144 |  |  |  | 
6 | O=[N+]([O-])c1cnc(Cl)nc1N(Cc1ccc(-c2cccc3ccoc23)s1)C1CCS(=O)(=O)C1 (configuration not stated) |  | 2.6 |  | 4.24 | 
7 | O=[N+]([O-])c1cnc(N(Cc2ccc3ccccc3c2)C2CCS(=O)(=O)C2)nc1Cl (configuration not stated) |  | > 100 |  | 3.94 | 
8 | O=[N+]([O-])c1cnc(Cl)nc1N(CC1CCCCC1)C1CCS(=O)(=O)C1 (configuration not stated) | 101 |  |  |  | 
9 | CCOC(=O)[C@H](CCCNC(=N)N)NC(=O)[C@H](Cc1c[nH]c2ccccc12)NC(=O)[C@@H]1CCCCN1C(=O)[C@H](Cc1ccccc1)N(C)C(=O)CCl (ClAc-[NMeF][Pip]WR-OEt) |  |  |  |  | 1.2
